Source: patent US10231958B2, “Methods and compositions for enhancing chemotherapy” (THE BOARD OF REGENTS OF THE UNIVERSITY OF TEXAS SYSTEM, priority 2015, dated 2019)
“Also recorded” adds a separate entry of the source.

Legend:
[1] = tested on: NFκB-responsive firefly luciferase construct in MDA-MB231 cells; test: NFκB gene reporter assay; type: cell-based, human
Method: (§1) Prior to transfection, cells were plated in 96-well plates to 80-90% confluence (100 μL antibiotic free-medium) after 24 h. When used, siRNA were incubated by reverse transfection during cells seeding. […] A mixture of non-inducible firefly luciferase construct and constitutively expressing Renilla luciferase construct (40:1) were used as negative controls. Approximately 24 h post-transfection, the medium was changed and the cells were treated for 12 h with alkylating agents (with/out 6 h pre-treatments). At the end of this period, medium was changed to drug-free fresh medium (to minimize the effect of alkylating toxicity on promoters activity) and cells were kept for an additional 12 h.

[2] = tested on: AP1-responsive firefly luciferase construct in MDA-MB231 cells; test: AP-1 gene reporter assay; type: cell-based, human
Method: as §1

[3] = tested on: MAPKs (ERK1/2, JNK1/2 and p38) and ATF2; test: Western blot of MAPK phosphorylation; type: cell-based; settings: 8 h
Method: Western blot. Protein lysates were prepared using RIPA buffer containing 5% sodium deoxycholate, 0.1% SDS, 0.1% Igepal in PBS with a cocktail of protease and phosphatase inhibitors (1 mM PMSF, 1 mM sodium orthovanadate, 1 mM NaF, and 30 μL/mL aprotinin (Sigma-Aldrich, USA)) and clarified by centrifugation. Protein concentration was determined using Bradford Protein Assay Reagent (Biorad, Hercules, Calif.). Equal amounts of protein were resolved using 8-12% SDS polyacrylamide gel, transferred onto nitrocellulose membranes (Hybond-ECL, GE Healthcare Lifesciences, Piscataway, N.J.) and detected using Lumiglo system (Cell Signaling Technology, Calif.) and x-ray films. Primary antibodies included COX-2 (#4842), NRF2 (D1C9), p-JNK1/2 (Thr183/Tyr185, #4671), p-p38 (Thr180/Tyr182, #9216), p-ERK1/2 (Thr202/Tyr204, #9101), BiP/GRP78 (C50B12), IRE1a (14C10), CHOP (L63F7) and PERK (D11A8) from Cell Signaling Technology; p-IRE1a (Ser724; NB100-2323) from Novus Biologicals; GCLC (Ab41463), beta-actin (ab8227) and ATF6 (Ab37149) from Abcam; p-PERK (Thr 981, sc-32577) and ATF3 (C19) were purchased from Santa Cruz. All primary antibodies were used at 1:1000 dilutions and secondary antibodies were 1:3000 in TBS-T with 5% BSA.

[4] = tested on: IL8, MMP1, MMP3 and PGE2; test: ELISA of inflammatory mediators in culture medium; type: cell-based, human
Method: Quantification of MMP1 and MMP3 content in culture medium was assessed using RayBio-MMP3 and RayBio-MMP1 Elisa Kit (RayBiotech, Inc); IL8 was analyzed by Human IL-8 Elisa kit (Pierce Biotechnology). The levels of prostaglandin E2 (PGE2) were determined using the Prostaglandin E2 EIA Kit Monoclonal (Cayman Chemical Company). Culture media were diluted to fit within the standard curves. For conditioned media (CM) preparation for invasion and in vitro angiogenesis experiments, 12-well plated cells were treated with MMS (or MMS plus inhibitors) for 8 h in the presence of 10% FBS, twice washed with HBSS, and incubated with 700 μL drug/serum-free fresh medium for additional 12 h. Thereafter, the conditioned fresh medium was collected and directly used for migration and invasion experiments in order to reduce freezing associated loss of activity.

[5] = tested on: primary MEFs or breast cancer cells; test: Cell viability of MEFs and breast cancer cells with kinase inhibitors; type: cell-based, mouse, human
Method: The D. melanogaster embryonic cell line Kc167 was grown in Schneider medium (Invitrogen, Carlsbad, Calif.) supplemented with 10% heat-inactivated (56° C./30 min) fetal bovine serum (FBS), penicillin and streptomycin at 22° C. in a humidified incubator. Primary MEFs were obtained by harvesting 14.5-day C57BL/6J embryos as previously described (Ravi et al., 2009, PLoS Genet 5, e1000527). Briefly, fetal liver and head were removed and the remainder of the embryo was mechanically disaggregated in plating medium. A suspension of single-cells was plated in DMEM (plus 10% FBS, 100 U/mL penicillin and 100 μg/mL streptomycin). MEFs were grown for two passages before freezing aliquots. Aliquots were taken and expanded as needed for each experiment. MDA-MB231, SkBr3 and MCF-7 breast cancer cells lines were obtained from ATCC and grown in DMEM supplemented with 10% inactivated FBS plus antibiotics in a 37° C. humidified incubator at […] atmosphere. Cells were kept and treated in the exponential phase of growing (60-70% confluence). Pharmaceuticals Sorafenib (Santa Cruz Biotechnology), UO126, SP600125, SB239063, celecoxib, buthionine sulfoximine (BSO), cycloheximide (CHX), actinomycin D and BAY117082 (BAY), or antioxidants as N-Acetyl-Cysteine (NAC), glutathione ethyl-ester (GSH-E) and Trolox (all from Sigma-Aldrich, USA) were pre-incubated with cells for 6 to 8 h before treatments with MMS, temozolomide, CDDP (from Sigma-Aldrich, USA) or 4-hydroperoxycyclophosphamide (4-HC; from US Biological). DMSO concentrations were kept to a maximum of 0.1% for all experiments.
Cell viability was assessed using CellTiter-Glo Luminescent Viability assay (Promega) in 384 or 96-well plates white-border clear-bottom plated cells. For caspase-3/7 activity, Caspase-Glo 3/7 Assay kits were used (Promega). For caspase assays, the cells were seeded in 96-well plates and assayed directly after treatments. […] LDH release into culture medium was quantified by Cytotox-96 Non-Radioactive assay kit in agreement with instructions (Promega).

[6] = tested on: Intracellular glutathione levels; test: Glutathione assay; type: cell-based
Method: Intracellular glutathione levels were measured using the Glutathione (GSH/GSSG/Total) Fluorometric Assay Kit (BioVision Incorporated, Calif.), following manufacturer protocol. Briefly, 1×10^6 cells were scraped in PBS and centrifuged. Pellets were resuspended in 100 μL Glutathione assay buffer. 60 μL of this homogenate was mixed with PCA (perchloric acid) and centrifuged. Supernatant containing small molecules including GSH were neutralized with KOH and 3 fractions were collected and separated to analyze reduced (GSH), oxidized (GSSG) and total glutathione forms (GSH+GSSG) by reaction with OPA probe (o-phthalaldehyde) in the presence or absence of GSH quencher or reducing agents depending on the compound to be determined. Fluorescence was monitored at Ex/Em=340/420 nm for 40 min. Glutathione forms were calculated and normalized by protein (Bradford's assay).

[7] = MDA-MB231, pre-incubation with inhibitor

SMILES	effect on MMS-induced activation of NFκB reporter [1, 7]	effect on MMS-induced activation of AP-1 reporter [2, 7]	effect on MMS-induced MAPK phosphorylation ([3]; MDA-MB231 cells)	effect on MMS/alkylation-induced IL8, MMP1, MMP3 and PGE2 secretion and COX-2 ([4]; MDA-MB231, 12 h)	effect on viability at low concentrations ([5]; 1 to 5 μM, presence or absence of alkylating agents)	concentration with non-selective cytotoxicity ([5]; breast cell lines and MEFs, GSH depletion, aberrant ROS)	viability at higher levels ([5]; higher levels of sorafenib)	glutathione metabolites ([6]; higher levels of MMS, as early as 8 h)	total GSH ([6]; lower levels of MMS (40 μg/mL))	activation of NFκB luciferase reporter ([1]; alkylating agent alone)	activation of AP-1 luciferase reporter ([2]; alkylating agent alone)	phosphorylation of MAPK ([3]; MDA-MB231 and MEF)	production of IL-8, MMP-1 and MMP-3 ([4]; MDA-MB231 culture medium)	prostaglandin E2 (PGE2) in culture medium and COX-2 protein in lysates ([4]; human cancer cells, 12 h)
CNC(=O)c1cc(Oc2ccc(NC(=O)Nc3ccc(Cl)c(C(F)(F)F)c3)cc2)ccn1 [sorafenib, 4-[4-[[4-chloro-3-(trifluoromethyl)phenyl]carbamoylamino]phenoxy]-N-methyl-pyridine-2-carboxamide]	strong inhibitory effects on both promoters; also recorded: blocked NFκB and AP-1 promoter activation	strong inhibitory effects on both promoters; also recorded: blocked NFκB and AP-1 promoter activation	blocked both MMS-induced phosphorylation of ERK1/2 and JNK1/2 as well as basal ERK1/2	exerted the strongest effect in blocking alkylation-induced IL8, COX-2/PGE2, MMP1 and 3	did not affect MMS/4-HC-induced losses in cell viability	≥ 20 µM	non-selective detriment to both cancer cells and MEFs	–	–	–	–	–	–	–
COS(C)(=O)=O [MMS, methyl-methanesulfonate]	–	–	–	–	–	–	–	depleted glutathione metabolites	able to keep or even increase their total GSH	activated both NFκB and AP-1 luciferase reporter constructs	activated both NFκB and AP-1 luciferase reporter constructs	increased phosphorylation of the three MAPK	enhances the production of MMP1, MMP3 and IL8	increased levels of prostaglandin E2 (PGE2)
